Experimental data reported in patent US9492398B2, “Nanocapsulation of essential oils for preventing or curing infectious diseases alone or with an antibiotic” (Eydo Pharma, priority 2011, dated 2016).
Values after ≈ are worked out from the molar mass of the structure shown. Read-outs that look alike come from different tables or passages of the source. One block for each compound: values may come before it.

Columns and labels:
[1] = from the literature; cited from earlier work
[2] = tested on: P. aeroginosa 0704C0134; assay: Minimal inhibitory concentration on Muller-Hinton agar; format: cell-based
Procedure: (§1) The essential oils were also tested individually for their minimal inhibitory concentration.
(§2) The solution was first prepared at 40% in DMSO before being placed on the Muller-Hinton agar in the following manner in Table VIII:
(§3) Twenty-two different microorganisms were tested and their minimal inhibitory concentration was tested.

[3] = tested on: Salmonell enteritidis 4; assay: as above; format: cell-based
Procedure: as §1, §2, §3

[4] = tested on: A. baumanni AYE; assay: as above; format: cell-based
Procedure: as §1, §2, §3

[5] = tested on: A. baumanni CIP7034; assay: as above; format: cell-based
Procedure: as §1, §2, §3

[6] = tested on: P. aeroginosa ATCC27853; assay: as above; format: cell-based; details: read-out: Minimal Inhibitory Concentration
Procedure: as §1, §2, §3

[7] = tested on: A. baumanni RCH; assay: as above; format: cell-based; details: for MIC: read-out: Minimal Inhibitory Concentration
Procedure: as §1, §2, §3

[8] = tested on: K. oxyloca 0705C0187; assay: as above; format: cell-based
Procedure: as §1, §2, §3

[9] = tested on: S. aureus 0701A0095; assay: as above; format: cell-based; details: for MIC: Staphylococcus aureus; for Minimal Inhibitory Concentration: S. aureus 0701A0095
Procedure: as §1, §2, §3

[10] = tested on: S. aureus 0703H0036; assay: as above; format: cell-based; details: for Minimal Inhibitory Concentration: S. aureus 0703H0036; for MIC: Staphylococcus aureus
Procedure: as §1, §2, §3

[11] = tested on: A. baumanni 12; assay: as above; format: cell-based; details: for MIC: read-out: Minimal Inhibitory Concentration
Procedure: as §1, §2, §3

[12] = tested on: E. coli 0705A0434; assay: as above; format: cell-based; details: for Minimal Inhibitory Concentration: E. coli 0705A0434; for MIC: Escherichia coli
Procedure: as §1, §2, §3

[13] = tested on: A. baumanni CIP5377; assay: as above; format: cell-based; details: for MIC: read-out: Minimal Inhibitory Concentration
Procedure: as §1, §2, §3

[14] = tested on: S. aureus 0702E0196; assay: as above; format: cell-based; details: for Minimal Inhibitory Concentration: S. aureus 0702E0196; for MIC: Staphylococcus aureus
Procedure: as §1, §2, §3

[15] = tested on: A. baumanni CIP107292; assay: as above; format: cell-based
Procedure: as §1, §2, §3

[16] = tested on: A. baumanni SAN008; assay: as above; format: cell-based
Procedure: as §1, §2, §3

[17] = tested on: E. aerogenes 0705A0867; assay: as above; format: cell-based; details: for Minimal Inhibitory Concentration: E. aerogenes 0705A0867; for MIC: Klebsiella aerogenes
Procedure: as §1, §2, §3

[18] = tested on: S. aureus ATC25923; assay: as above; format: cell-based; details: for Minimal Inhibitory Concentration: S. aureus ATC25923; for MIC: Staphylococcus aureus
Procedure: as §1, §2, §3

[19] = tested on: E. coli ATCC25922; assay: as above; format: cell-based; details: for Minimal Inhibitory Concentration: E. coli ATCC25922; for MIC: Escherichia coli
Procedure: as §1, §2, §3

[20] = tested on: E. cloacae 0705A1743; assay: as above; format: cell-based; details: for Minimal Inhibitory Concentration: E. cloacae 0705A1743; for MIC: Enterobacter cloacae
Procedure: as §1, §2, §3

[21] = tested on: S. aureus 0706C0025; assay: as above; format: cell-based; details: for Minimal Inhibitory Concentration: S. aureus 0706C0025; for MIC: Staphylococcus aureus
Procedure: as §1, §2, §3

[22] = tested on: P. aeroginosa 0703C0259; assay: as above; format: cell-based
Procedure: as §1, §2, §3

[23] = P. aeroginosa 0704C0134, read-out: Minimal Inhibitory Concentration
[24] = Salmonell enteritidis 4, read-out: Minimal Inhibitory Concentration
[25] = A. baumanni AYE, read-out: Minimal Inhibitory Concentration
[26] = A. baumanni CIP7034, read-out: Minimal Inhibitory Concentration
[27] = K. oxyloca 0705C0187, read-out: Minimal Inhibitory Concentration
[28] = 0701A0095, S. aureus 0701A0095, read-out: Minimal Inhibitory Concentration
[29] = 0703H0036, S. aureus 0703H0036, read-out: Minimal Inhibitory Concentration
[30] = 0705A0434, E. coli 0705A0434, read-out: Minimal Inhibitory Concentration
[31] = 0702E0196, S. aureus 0702E0196, read-out: Minimal Inhibitory Concentration
[32] = A. baumanni SAN008, read-out: Minimal Inhibitory Concentration
[33] = 0705A0867, E. aerogenes 0705A0867, read-out: Minimal Inhibitory Concentration
[34] = ATC25923, S. aureus ATC25923, read-out: Minimal Inhibitory Concentration
[35] = 0706C0025, S. aureus 0706C0025, read-out: Minimal Inhibitory Concentration

Compound: [H]/N=C(/N)N[C@H]1[C@H](O)[C@@H](O)[C@H](O[C@@H]2O[C@@H](C)[C@](O)(C=O)[C@H]2O[C@@H]2O[C@@H](CO)[C@H](O)[C@@H](O)[C@@H]2NC)[C@@H](N/C(N)=N\[H])[C@@H]1O [Streptomycin]
LD50 in mice by intraperitoneal injection [1]: 525 mg/kg

Compound: Cc1ccc(C(C)C)cc1O [carvacrol]
Minimal Inhibitory Concentration ([2]; P. aeroginosa 0704C0134): 5 mg/mL
MIC ([2]; read-out: Minimal Inhibitory Concentration, P. aeroginosa 0704C0134): 2500 mg/L (≈ 16.6 mM)
Minimal Inhibitory Concentration ([3]; Salmonell enteritidis 4): 2.5 mg/mL
MIC ([3]; read-out: Minimal Inhibitory Concentration, Salmonell enteritidis 4): 2000 mg/L (≈ 13.3 mM)
Minimal Inhibitory Concentration ([4]; A. baumanni AYE): 1.5 mg/mL
MIC ([4]; read-out: Minimal Inhibitory Concentration, A. baumanni AYE): 1000 mg/L (≈ 6.66 mM)
Minimal Inhibitory Concentration ([5]; A. baumanni CIP7034): 1.5 mg/mL
MIC ([5]; read-out: Minimal Inhibitory Concentration, A. baumanni CIP7034): 1000 mg/L (≈ 6.66 mM)
MIC [6]: 7500 mg/L (≈ 49.9 mM)
MIC [7]: 1000 mg/L (≈ 6.66 mM)
Minimal Inhibitory Concentration ([8]; K. oxyloca 0705C0187): 2 mg/mL
MIC ([8]; read-out: Minimal Inhibitory Concentration, K. oxyloca 0705C0187): 1500 mg/L (≈ 9.99 mM)
MIC ([9]; 0701A0095, read-out: Minimal Inhibitory Concentration): 1500 mg/L (≈ 9.99 mM)
Minimal Inhibitory Concentration [10]: 2 mg/mL
MIC ([10]; 0703H0036, read-out: Minimal Inhibitory Concentration, S. aureus 0703H0036): 1500 mg/L (≈ 9.99 mM)
MIC [11]: 1500 mg/L (≈ 9.99 mM)
Minimal Inhibitory Concentration [12]: 2 mg/mL
MIC ([12]; 0705A0434, read-out: Minimal Inhibitory Concentration, E. coli 0705A0434): 1500 mg/L (≈ 9.99 mM)
MIC [13]: 1000 mg/L (≈ 6.66 mM)
Minimal Inhibitory Concentration [14]: 1 mg/mL
MIC ([14]; 0702E0196, read-out: Minimal Inhibitory Concentration, S. aureus 0702E0196): 1500 mg/L (≈ 9.99 mM)
Minimal Inhibitory Concentration ([15]; A. baumanni CIP107292): 1.5 mg/mL
MIC ([15]; read-out: Minimal Inhibitory Concentration, A. baumanni CIP107292): 1000 mg/L (≈ 6.66 mM)
Minimal Inhibitory Concentration ([16]; A. baumanni SAN008): 1.5 mg/mL
MIC ([16]; read-out: Minimal Inhibitory Concentration, A. baumanni SAN008): 1000 mg/L (≈ 6.66 mM)
Minimal Inhibitory Concentration [17]: 2 mg/mL
MIC ([17]; 0705A0867, read-out: Minimal Inhibitory Concentration, E. aerogenes 0705A0867): 1500 mg/L (≈ 9.99 mM)
Minimal Inhibitory Concentration [18]: 0.75 mg/mL
MIC ([18]; ATC25923, read-out: Minimal Inhibitory Concentration, S. aureus ATC25923): 1500 mg/L (≈ 9.99 mM)
Minimal Inhibitory Concentration [19]: 2 mg/mL
MIC ([19]; ATCC25922, read-out: Minimal Inhibitory Concentration, E. coli ATCC25922): 1500 mg/L (≈ 9.99 mM)
Minimal Inhibitory Concentration [20]: 2 mg/mL
MIC ([20]; 0705A1743, read-out: Minimal Inhibitory Concentration, E. cloacae 0705A1743): 1500 mg/L (≈ 9.99 mM)
Minimal Inhibitory Concentration [21]: 2 mg/mL
MIC ([21]; 0706C0025, read-out: Minimal Inhibitory Concentration, S. aureus 0706C0025): 1500 mg/L (≈ 9.99 mM)

MIC [2, 23]: 1500 mg/L (≈ 9.13 mM)
MIC [3, 24]: 1000 mg/L (≈ 6.09 mM)
MIC [4, 25]: 750 mg/L (≈ 4.57 mM)
MIC [5, 26]: 1000 mg/L (≈ 6.09 mM)
MIC ([6]; P. aeroginosa ATCC27853): 7500 mg/L (≈ 45.7 mM)
MIC ([7]; A. baumanni RCH): 750 mg/L (≈ 4.57 mM)
MIC [8, 27]: 1000 mg/L (≈ 6.09 mM)
MIC [9, 28]: 750 mg/L (≈ 4.57 mM)
MIC [22]: 2500 mg/L (≈ 15.2 mM)
MIC [10, 29]: 1000 mg/L (≈ 6.09 mM)
MIC ([11]; A. baumanni 12): 1000 mg/L (≈ 6.09 mM)
MIC [12, 30]: 1000 mg/L (≈ 6.09 mM)
MIC ([13]; A. baumanni CIP5377): 500 mg/L (≈ 3.04 mM)
MIC [14, 31]: 1000 mg/L (≈ 6.09 mM)
MIC ([15]; A. baumanni CIP107292, read-out: Minimal Inhibitory Concentration): 1000 mg/L (≈ 6.09 mM)
MIC [16, 32]: 750 mg/L (≈ 4.57 mM)
MIC [17, 33]: 1000 mg/L (≈ 6.09 mM)
MIC [18, 34]: 750 mg/L (≈ 4.57 mM)
MIC ([19]; ATCC25922, E. coli ATCC25922, read-out: Minimal Inhibitory Concentration): 750 mg/L (≈ 4.57 mM)
MIC ([20]; 0705A1743, E. cloacae 0705A1743, read-out: Minimal Inhibitory Concentration): 1000 mg/L (≈ 6.09 mM)
MIC [21, 35]: 1000 mg/L (≈ 6.09 mM)
Compound: C=CCc1ccc(O)c(OC)c1 [eugenol]
Minimal Inhibitory Concentration ([2]; P. aeroginosa 0704C0134): 2 mg/mL
Minimal Inhibitory Concentration ([3]; Salmonell enteritidis 4): 1.5 mg/mL
Minimal Inhibitory Concentration ([4]; A. baumanni AYE): 1 mg/mL
Minimal Inhibitory Concentration ([5]; A. baumanni CIP7034): 1.5 mg/mL
Minimal Inhibitory Concentration ([7]; A. baumanni RCH): 1 mg/mL
Minimal Inhibitory Concentration ([8]; K. oxyloca 0705C0187): 1.5 mg/mL
Minimal Inhibitory Concentration [9]: 1.5 mg/mL
Minimal Inhibitory Concentration [22]: 5 mg/mL
Minimal Inhibitory Concentration [10]: 1.5 mg/mL
Minimal Inhibitory Concentration ([11]; A. baumanni 12): 1.5 mg/mL
Minimal Inhibitory Concentration [12]: 1.5 mg/mL
Minimal Inhibitory Concentration ([13]; A. baumanni CIP5377): 1 mg/mL
Minimal Inhibitory Concentration [14]: 1.5 mg/mL
Minimal Inhibitory Concentration ([16]; A. baumanni SAN008): 1.5 mg/mL
Minimal Inhibitory Concentration [17]: 1.5 mg/mL
Minimal Inhibitory Concentration [18]: 1.5 mg/mL
Minimal Inhibitory Concentration [19]: 1.5 mg/mL
Minimal Inhibitory Concentration [20]: 1.5 mg/mL

Compound: O=C/C=C/c1ccccc1 [trans cinnamaldehyde]
Minimal Inhibitory Concentration ([2]; P. aeroginosa 0704C0134): 2 mg/mL
MIC [2, 23]: 1000 mg/L (≈ 7.57 mM)
Minimal Inhibitory Concentration ([3]; Salmonell enteritidis 4): 2 mg/mL
MIC [3, 24]: 1000 mg/L (≈ 7.57 mM)
Minimal Inhibitory Concentration ([4]; A. baumanni AYE): 2 mg/mL
MIC [4, 25]: 1000 mg/L (≈ 7.57 mM)
MIC [5, 26]: 1000 mg/L (≈ 7.57 mM)
Minimal Inhibitory Concentration ([8]; K. oxyloca 0705C0187): 2 mg/mL
MIC [8, 27]: 1000 mg/L (≈ 7.57 mM)
Minimal Inhibitory Concentration [9]: 1.5 mg/mL
MIC [9, 28]: 750 mg/L (≈ 5.67 mM)
MIC [22]: 1500 mg/L (≈ 11.3 mM)
Minimal Inhibitory Concentration [22]: 2 mg/mL
Minimal Inhibitory Concentration [10]: 1.5 mg/mL
MIC [10, 29]: 750 mg/L (≈ 5.67 mM)
MIC ([11]; A. baumanni 12): 1000 mg/L (≈ 7.57 mM)
Minimal Inhibitory Concentration [12]: 2 mg/mL
MIC [12, 30]: 1000 mg/L (≈ 7.57 mM)
Minimal Inhibitory Concentration [14]: 1.5 mg/mL
MIC [14, 31]: 1000 mg/L (≈ 7.57 mM)
Minimal Inhibitory Concentration ([16]; A. baumanni SAN008): 2 mg/mL
MIC [16, 32]: 1000 mg/L (≈ 7.57 mM)
Minimal Inhibitory Concentration [17]: 2 mg/mL
MIC [17, 33]: 1000 mg/L (≈ 7.57 mM)
Minimal Inhibitory Concentration [18]: 1.5 mg/mL
MIC [18, 34]: 750 mg/L (≈ 5.67 mM)
Minimal Inhibitory Concentration [21]: 0.5 mg/mL
MIC [21, 35]: 750 mg/L (≈ 5.67 mM)

Compound: Gentamicin
LD50 in mice by intraperitoneal injection [1]: 245 mg/kg
